According to US10208056B2, “Condensed tricyclic compounds as protein kinase inhibitors” (FUNDACIÓN DEL SECTOR PÚBLICO ESTATAL CENTRO NACIONAL DE …, priority 2015, dated 2019):

Tests used:
MDAMB231 = experiment: Combination assay, MDAMB231; format: cell-based; conditions: Homo sapiens, MDA-MB-231; MDAMB231, chemotherapeutic alone; read-out: Chemo GI50
Protocol: (§1) The combination index (CI) of combinations of certain example compounds and various chemotherapeutic agents in the CellTitetI-Glo® in vitro cell proliferation assays may be tested. A combination index score is calculated by the Chou and Talalay method (CalcuSyn software, Biosoft). The strength of synergy is scored using the ranking system Chou and Talalay: CI less than 0.8 indicates synergy, CI between 0.8 and 1.2 indicates additivity and CI greater than 1.2 indicates antagonism.
(§2) The EC50 values of representative combinations are also calculated. The individually measured EC50 values of the chemotherapeutic agent and the example compounds are compared to the EC50 value of the combination. The cell lines are characterised by tumor type. Combination assays are performed as described in: “Pim 1 kinase inhibitor ETP-45299 suppresses cellular proliferation and synergizes with PI3K inhibition”. Blanco-Aparicio, Carmen; Collazo, Ana Maria Garcia; Oyarzabal, Julen; Leal, Juan F.; Albaran, Maria Isabel; Lima, Francisco Ramos; Pequeno, Belen; Ajenjo, Nuria; Becerra, Mercedes; Alfonso, Patricia; Reymundo, Maria Isabel; Palacios, Irene; Mateos, Genoveva; Quinones, Helena; Corrionero, Ana; Carnero, Amancio; Pevarello, Paolo; Lopez, Ana Rodriguez; Fominaya, Jesus; Pastor, Joaquin; Bischoff, James R. Cancer Letters (Shannon, Ireland) 2011, 300(2), 145-153

SKMEL19 = experiment: Combination assay, SKMEL19; format: cell-based; conditions: Homo sapiens, SK-MEL19; SKMEL19, chemotherapeutic alone; read-out: Chemo GI50
Protocol: as §1, §2

SW620 [1] = experiment: Combination assay, SW620; format: cell-based, human; conditions: Homo sapiens, SW-620; SW620, chemotherapeutic alone; read-out: Chemo GI50
Protocol: as §1, §2

A549 = experiment: Combination assay, A549; format: cell-based; conditions: Homo sapiens; A549, chemotherapeutic alone; read-out: Chemo GI50
Protocol: as §1, §2

BXPC-3 = experiment: Combination assay, BXPC-3; format: cell-based; conditions: Homo sapiens; BXPC-3, chemotherapeutic alone; read-out: Chemo GI50
Protocol: as §1, §2

HCT116 = experiment: Combination assay, HCT116; format: cell-based; conditions: Homo sapiens, HCT-116; HCT116, chemotherapeutic alone; read-out: Chemo GI50
Protocol: as §1, §2

DU145 = experiment: Combination assay, DU145; format: cell-based; conditions: Homo sapiens, DU-145; DU145, chemotherapeutic alone; read-out: Chemo GI50
Protocol: as §1
The EC50 values of representative combinations are also calculated. The individually measured EC50 values of the chemotherapeutic agent and the example compounds are compared to the EC50 value of the combination. The cell lines are characterised by tumor type. […] Blanco-Aparicio, Carmen; Collazo, Ana Maria Garcia; Oyarzabal, Julen; Leal, Juan F.; Albaran, Maria Isabel; Lima, Francisco Ramos; Pequeno, Belen; Ajenjo, Nuria; Becerra, Mercedes; Alfonso, Patricia; Reymundo, Maria Isabel; Palacios, Irene; Mateos, Genoveva; Quinones, Helena; Corrionero, Ana; Carnero, Amancio; Pevarello, Paolo; Lopez, Ana Rodriguez; Fominaya, Jesus; Pastor, Joaquin; Bischoff, James R. Cancer Letters (Shannon, Ireland) 2011, 300(2), 145-153

[2] = tested on: H3T3ph in tumoral cells from colon, breast and cervix; conditions: dose dependent; cited from earlier work
CDK8/Cyclin C = CDK8/Cyclin C (Homo sapiens (Human), UniProt P49336); experiment: CDK8/Cyclin C binding assay (LanthaScreen Eu-Kinase Binding Assay); conditions: binding assay
Chain of CDK8/Cyclin C (P49336 whole entry): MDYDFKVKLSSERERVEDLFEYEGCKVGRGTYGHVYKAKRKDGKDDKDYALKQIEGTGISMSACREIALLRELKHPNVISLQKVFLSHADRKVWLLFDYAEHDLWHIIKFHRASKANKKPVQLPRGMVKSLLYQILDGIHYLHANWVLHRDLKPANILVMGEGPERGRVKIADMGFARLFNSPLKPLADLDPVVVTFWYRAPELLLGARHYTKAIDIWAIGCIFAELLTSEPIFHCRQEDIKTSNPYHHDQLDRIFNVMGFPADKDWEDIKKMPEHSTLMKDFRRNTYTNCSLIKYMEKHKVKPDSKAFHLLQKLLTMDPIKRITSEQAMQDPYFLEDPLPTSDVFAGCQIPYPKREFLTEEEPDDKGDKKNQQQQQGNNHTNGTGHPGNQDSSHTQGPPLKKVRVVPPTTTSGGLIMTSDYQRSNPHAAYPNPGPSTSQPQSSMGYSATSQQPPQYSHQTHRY
Chain of CDK8/Cyclin C (P24863 whole entry partner): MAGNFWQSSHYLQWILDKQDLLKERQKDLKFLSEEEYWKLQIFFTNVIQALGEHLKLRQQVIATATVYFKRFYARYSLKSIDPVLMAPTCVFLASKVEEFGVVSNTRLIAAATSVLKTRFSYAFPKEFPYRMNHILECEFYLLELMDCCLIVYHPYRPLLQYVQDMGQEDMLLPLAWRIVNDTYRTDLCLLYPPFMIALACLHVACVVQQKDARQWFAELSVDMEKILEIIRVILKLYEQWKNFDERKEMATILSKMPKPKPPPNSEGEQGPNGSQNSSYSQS
Protocol: The enzyme has been purchase from Invitrogen (PV4402) as a dimer of full-length His-tagged recombinant human proteins.
Assays were performed in 384-well plates. The final read out was generated using an EnVision plate reader (Perkin-Elmer).

intracellular HASPIN = intracellular HASPIN (Homo sapiens (Human), UniProt Q8TF76); experiment: Cellular HASPIN inhibition assay, western blot phospho H3T3 in synchronized SW620 cells; format: cell-based; conditions: semiquantitative, read-out: SW620 PH3(T3) in synchronized cells
Chain of intracellular HASPIN (Q8TF76 whole entry): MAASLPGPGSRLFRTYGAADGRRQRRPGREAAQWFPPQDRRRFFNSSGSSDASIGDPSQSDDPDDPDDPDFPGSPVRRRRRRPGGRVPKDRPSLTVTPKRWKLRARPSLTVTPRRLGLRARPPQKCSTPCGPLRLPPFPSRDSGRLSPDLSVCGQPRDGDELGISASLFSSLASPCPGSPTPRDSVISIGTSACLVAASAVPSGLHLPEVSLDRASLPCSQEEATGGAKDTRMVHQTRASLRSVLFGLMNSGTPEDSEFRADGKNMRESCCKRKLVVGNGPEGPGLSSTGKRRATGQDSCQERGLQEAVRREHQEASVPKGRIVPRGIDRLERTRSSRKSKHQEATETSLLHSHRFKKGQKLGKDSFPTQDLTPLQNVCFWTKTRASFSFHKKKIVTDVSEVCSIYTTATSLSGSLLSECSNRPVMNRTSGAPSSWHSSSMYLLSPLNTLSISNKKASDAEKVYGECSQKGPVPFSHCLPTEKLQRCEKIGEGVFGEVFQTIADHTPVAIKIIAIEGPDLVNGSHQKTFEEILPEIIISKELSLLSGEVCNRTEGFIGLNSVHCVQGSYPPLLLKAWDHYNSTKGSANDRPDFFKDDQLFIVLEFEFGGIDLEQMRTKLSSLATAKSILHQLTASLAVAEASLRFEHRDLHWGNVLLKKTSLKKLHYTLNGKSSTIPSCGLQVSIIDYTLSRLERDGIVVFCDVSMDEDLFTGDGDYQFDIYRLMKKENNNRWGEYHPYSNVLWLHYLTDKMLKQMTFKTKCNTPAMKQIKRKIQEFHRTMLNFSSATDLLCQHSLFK
Protocol: Compounds can be screened for their ability to inhibit intracellular HASPIN using a western blot assay to detect phosphorylation of the HASPIN substrate H3T3 in synchronized cells. SW620 cells are plated at 200000 cells per well in 6-well plates (Solmeglas 13118) in RPMI media (Sigma-Aldrich R6504) supplemented with 10% foetal bovine serum (Sigma-Aldrich F7524), Penicillin/Streptomycin solution diluted 1:100 (Gibco 15070-063), and fungizone (Gibco, 15290-018), and allowed to adhere overnight at 37° C. in 5% CO2. Cells are then treated 16 h hours with Nocadazole (Sigma-Aldrich M1404) at 250 ng/ml to arrest them in mitosis. Proteasoma inhibitor MG132 (Sigma-Aldrich C2211) is added to a final concentration of […] to keep cells arrested in mitosis. Compounds are then added to the cell media from a final concentration of 10 μM in 10-fold serial dilutions and the cells are incubated at 37° C. in 5% CO2. After 1 hour and 30 minutes of treatment with the compounds, the cells are washed in PBS, lysed adding 100 μl of protein lysis buffer (62.5 mM Tris pH 6.8 al 6.25%, 2% SDS y 10% glycerol) incubation 10 minutes at room temperature and heating at 95° C. 10 min. The protein content of the lysates is determined by DC protein assay (Biorad, Ref. 5000116). The proteins are resolved by SDS-PAGE and transferred to nitrocellulose membrane (VWR International eurolab, Ref. 732-4007). The membranes are incubated overnight at 4° C. with antibodies specific for total H3 (Millipore #07424), phosphothreonine-3 H3 (Cell Signaling Ref. 14269) they are washed and then incubated with IRDye800 conjugated anti-mouse (Pierce/Cultek, 35521) and Alexa Fluor 680 goat anti-rabbit IgG secondary antibodies (Invitrogen, A21076). The bands are visualized and quantified using an Odyssey infrared imaging system (Li-Cor Biosciences). The percentage of phosphorylated H3 vs total H3 in synchronized cells is taken as hundred percent of phosphorylation. The percentage of H3 phosphorylation is finally plotted against concentration for each compound and EC50s for intracellular HASPIN inhibition are calculated using ActivityBase from IDBS.

intracellular CDK8 [3] = target: T1, intracellular CDK8 (Homo sapiens (Human), UniProt P49336); experiment: Cellular CDK8 inhibition assay, western blot P-STAT1 (S727) in IFN-γ treated SW620 cells; format: cell-based; conditions: SW620, IFNγ treated, semiquantitative; read-out: SW620 P-STAT1(S727) w IFNγ
T1 sequence (P49336 whole entry): as the sequence (P49336 whole entry) above
T1 sequence (P24863 whole entry partner): as the sequence (P24863 whole entry partner) above
T1 sequence (Q93074 whole entry partner): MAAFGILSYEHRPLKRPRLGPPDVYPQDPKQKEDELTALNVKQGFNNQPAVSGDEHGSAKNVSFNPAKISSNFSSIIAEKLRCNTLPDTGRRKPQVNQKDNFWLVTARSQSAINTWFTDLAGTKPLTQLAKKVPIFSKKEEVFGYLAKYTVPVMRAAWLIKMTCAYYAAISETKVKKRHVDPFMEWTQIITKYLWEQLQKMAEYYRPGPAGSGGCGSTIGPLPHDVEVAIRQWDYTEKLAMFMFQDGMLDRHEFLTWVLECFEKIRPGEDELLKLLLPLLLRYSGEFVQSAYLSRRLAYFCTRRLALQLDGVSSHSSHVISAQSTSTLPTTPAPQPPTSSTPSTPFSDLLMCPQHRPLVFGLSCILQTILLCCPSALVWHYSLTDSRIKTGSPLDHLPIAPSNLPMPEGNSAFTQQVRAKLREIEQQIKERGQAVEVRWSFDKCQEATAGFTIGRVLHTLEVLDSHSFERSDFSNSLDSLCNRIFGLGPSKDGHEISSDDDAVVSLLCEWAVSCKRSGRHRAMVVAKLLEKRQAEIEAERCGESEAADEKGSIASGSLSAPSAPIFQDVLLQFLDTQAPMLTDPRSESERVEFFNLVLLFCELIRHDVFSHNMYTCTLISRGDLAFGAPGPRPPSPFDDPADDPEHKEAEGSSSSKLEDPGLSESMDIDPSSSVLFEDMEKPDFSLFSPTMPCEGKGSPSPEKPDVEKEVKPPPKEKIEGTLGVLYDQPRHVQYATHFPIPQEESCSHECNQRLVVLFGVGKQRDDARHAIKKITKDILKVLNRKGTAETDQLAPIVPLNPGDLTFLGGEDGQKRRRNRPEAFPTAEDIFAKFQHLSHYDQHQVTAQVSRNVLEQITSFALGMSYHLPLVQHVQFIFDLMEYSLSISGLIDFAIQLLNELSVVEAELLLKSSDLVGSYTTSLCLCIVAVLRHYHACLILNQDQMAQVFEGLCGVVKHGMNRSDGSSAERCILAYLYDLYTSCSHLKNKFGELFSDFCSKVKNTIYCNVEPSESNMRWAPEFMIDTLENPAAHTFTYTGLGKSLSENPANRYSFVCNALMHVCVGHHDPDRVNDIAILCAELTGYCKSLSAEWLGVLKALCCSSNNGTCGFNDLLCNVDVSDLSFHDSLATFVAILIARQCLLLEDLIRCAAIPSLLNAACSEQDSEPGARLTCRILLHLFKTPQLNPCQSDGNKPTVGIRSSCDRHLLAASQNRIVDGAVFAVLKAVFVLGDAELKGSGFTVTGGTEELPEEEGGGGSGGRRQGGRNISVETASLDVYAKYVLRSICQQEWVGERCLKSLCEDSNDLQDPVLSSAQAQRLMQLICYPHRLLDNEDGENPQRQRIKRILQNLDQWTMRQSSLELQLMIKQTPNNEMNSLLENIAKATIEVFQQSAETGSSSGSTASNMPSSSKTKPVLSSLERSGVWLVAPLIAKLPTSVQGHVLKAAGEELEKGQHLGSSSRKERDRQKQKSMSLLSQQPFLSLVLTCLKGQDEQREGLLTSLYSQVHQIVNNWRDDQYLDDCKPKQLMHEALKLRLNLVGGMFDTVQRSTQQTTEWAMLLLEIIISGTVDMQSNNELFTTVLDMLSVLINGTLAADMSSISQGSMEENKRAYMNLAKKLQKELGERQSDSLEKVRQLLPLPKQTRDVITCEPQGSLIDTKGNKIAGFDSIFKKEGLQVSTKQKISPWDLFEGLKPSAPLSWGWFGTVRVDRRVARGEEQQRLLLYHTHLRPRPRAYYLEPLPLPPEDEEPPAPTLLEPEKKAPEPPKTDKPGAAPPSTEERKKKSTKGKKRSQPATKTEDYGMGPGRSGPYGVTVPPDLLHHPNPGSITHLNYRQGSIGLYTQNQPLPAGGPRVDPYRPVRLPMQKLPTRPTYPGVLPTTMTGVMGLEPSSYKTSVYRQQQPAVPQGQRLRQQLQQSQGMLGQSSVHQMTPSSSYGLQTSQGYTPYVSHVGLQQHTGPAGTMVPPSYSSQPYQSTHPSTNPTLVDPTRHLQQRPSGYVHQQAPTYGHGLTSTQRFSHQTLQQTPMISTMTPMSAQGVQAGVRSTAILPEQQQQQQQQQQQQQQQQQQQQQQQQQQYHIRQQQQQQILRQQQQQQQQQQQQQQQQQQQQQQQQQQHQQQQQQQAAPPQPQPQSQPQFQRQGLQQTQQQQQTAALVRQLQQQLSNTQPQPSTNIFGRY
Protocol: Compounds can be screened for their ability to inhibit intracellular CDK8 using a western blot assay to detect phosphorylation of the CDK8 substrate STAT1 (S727) in IFN-γ treated cells. SW620 cells are plated at 1*10^6 cells per well in 6-well plates (Solmeglas 13118) in RPMI media (Sigma-Aldrich R6504) supplemented with 10% foetal bovine serum (Sigma-Aldrich F7524), Penicillin/Streptomycin solution diluted 1:100 (Gibco 15070-063), and fungizone (Gibco, 15290-018), and allowed to adhere overnight at 37° C. in 5% CO2. Compounds are then added to the cell media from a final concentration of 10 μM in 10-fold serial dilutions and the cells are incubated at 37° C. in 5% CO2. After 1 hour, IFNγ (R&D systems Ref. RYD-285-IF-100) is added to a final concentration of […]. After 3 hours of treatment with IFNγ, the cells are washed in PBS, lysed adding 100 μl of protein lysis buffer (62.5 mM Tris pH 6.8 al 6.25%, 2% SDS y 10% glycerol) incubation 10 minutes at room temperature and heating at 95° C. 10 min. The protein content of the lysates is determined by DC protein assay (Biorad, Ref. 5000116). The proteins are resolved by SDS-PAGE and transferred to nitrocellulose membrane (VWR International eurolab, Ref. 732-4007). The membranes are incubated overnight at 4° C. with antibodies specific for total STAT1 (BD Transduction laboratory #610115), phosphoserine-727 STAT1 (Cell Signaling Ref. 9177) they are washed and then incubated with IRDye800 conjugated anti-mouse (Pierce/Cultek, 35521) and Alexa Fluor 680 goat anti-rabbit IgG secondary antibodies (Invitrogen, A21076). The bands are visualized and quantified using an Odyssey infrared imaging system (Li-Cor Biosciences). The percentage of phosphorylated STAT1 vs total STAT1 in cells treated with IFNγ is taken as hundred percent of phosphorylation. The percentage of STAT1 phosphorylation is finally plotted against concentration for each compound and EC50s for intracellular CDK8 inhibition are calculated using ActivityBase from IDBS.

SW620 cells = experiment: Colony formation assay; format: cell-based, human; conditions: SW620 cells treated 11 days
Protocol: The in vitro potency of the compounds was measured by colony formation assays. SW620 cells in logarithmic growth phase are plated at 800 cells per well in 6-well plates (Solmeglas 13118) in RPMI media (Sigma-Aldrich R6504) supplemented with 10% foetal bovine serum (Sigma-Aldrich F7524), Penicillin/Streptomycin solution diluted 1:100 (Gibco 15070-063), and fungizone (Gibco, 15290-018), and allowed to adhere overnight at 37° C. in 5% CO2. Compounds are then added to the cell media from a final concentration of 10 μM in 10-fold serial dilutions and the cells are incubated at 37° C. in 5% CO2. Every three days the medium is changed by fresh medium and compounds are added again. After 11 days, colonies are washed with PBS and fixed in 0.5% crystal violet (Sigma-Aldrich Ref. V5265), 6% glutaraldehide (Sigma-Aldrich Ref. G5882) for 30 minutes. After extensive washing, colonies are dissolved in 2 ml of 10% glacial acetic acid (Sigma-Aldrich Ref. 537020) and absorbance at 590 nm is measured in the Victor 1420 Multilabel Counter (Perkin Elmer). The absorbance in cells treated with DMSO is taken as hundred percent of proliferation. The percentage of proliferation is finally plotted against concentration for each compound and EC50s for colony formation inhibition are calculated using ActivityBase from IDBS.

CDK19/Cyclin C = CDK19/Cyclin C (Homo sapiens (Human), UniProt Q9BWU1); experiment: CDK19/Cyclin C binding assay (LanthaScreen Eu-Kinase Binding Assay); conditions: read-out: CDK19-CYCC IC50
Chain of CDK19/Cyclin C (Q9BWU1 whole entry): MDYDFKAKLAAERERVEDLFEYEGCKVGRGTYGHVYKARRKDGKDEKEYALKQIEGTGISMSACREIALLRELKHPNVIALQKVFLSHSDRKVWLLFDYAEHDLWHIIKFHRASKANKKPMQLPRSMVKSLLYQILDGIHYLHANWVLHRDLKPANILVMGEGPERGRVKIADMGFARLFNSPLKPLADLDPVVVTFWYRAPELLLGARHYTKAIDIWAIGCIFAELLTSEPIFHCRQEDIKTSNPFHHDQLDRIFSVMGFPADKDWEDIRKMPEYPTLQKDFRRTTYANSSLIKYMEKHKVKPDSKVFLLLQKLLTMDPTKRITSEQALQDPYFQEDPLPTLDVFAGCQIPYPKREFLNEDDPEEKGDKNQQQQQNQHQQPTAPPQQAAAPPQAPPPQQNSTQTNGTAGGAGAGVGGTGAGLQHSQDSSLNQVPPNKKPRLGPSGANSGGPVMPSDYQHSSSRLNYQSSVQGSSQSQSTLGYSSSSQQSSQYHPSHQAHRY
Chain of CDK19/Cyclin C (P24863 whole entry partner): as the sequence (P24863 whole entry partner) above
How it was run: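 LanthaScreen TR-FRET tracer-displacement format with 2 nM Cdk19-Cyclin C, 20 nM tracer and 2 nM Eu-anti-GST antibody. The buffer was 50 mM HEPES pH 7.5, 10 mM MgCl2, 1 mM EGTA, 0.01% Brij-35, with 1% DMSO final. Compounds were tested as 1:3 serial dilutions and incubated for 60 min at 25 °C.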

Haspin kinase = Haspin kinase (Homo sapiens (Human), UniProt Q8TF76); experiment: Haspin kinase assay (ADP-Glo); format: biochemical; conditions: ATP 150 μM
Chain of Haspin kinase (Q8TF76 484-798): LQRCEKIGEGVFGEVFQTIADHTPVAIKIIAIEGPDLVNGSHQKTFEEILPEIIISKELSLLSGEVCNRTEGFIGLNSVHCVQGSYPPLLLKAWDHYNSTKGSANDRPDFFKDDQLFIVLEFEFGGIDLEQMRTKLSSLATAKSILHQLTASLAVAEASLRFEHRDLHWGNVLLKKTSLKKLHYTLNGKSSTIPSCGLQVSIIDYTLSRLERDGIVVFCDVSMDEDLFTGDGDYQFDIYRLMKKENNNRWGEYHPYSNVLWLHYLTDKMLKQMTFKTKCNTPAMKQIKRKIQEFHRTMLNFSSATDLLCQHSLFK
How it was run: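 ADP-Glo luminescence measured the intrinsic ATPase activity, without peptide substrate, of the GST-tagged human Haspin kinase domain (20 nM) at 150 μM ATP. Reactions ran 60 min at 30 °C in HEPES pH 7.4 buffer with 10 mM MgCl2 and 1% DMSO. Inhibition was calculated against no-compound controls across 1:3 dilution series.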

MDA-MB-231 = experiment: In vitro cell proliferation assay (CellTiter-Glo), MDA-MB-231; format: cell-based; conditions: Homo sapiens, MDA-MB-231; growth inhibition, semiquantitative; read-out: GI50 MDA-MB-231
MV4:11 = experiment: In vitro cell proliferation assay (CellTiter-Glo), MV4:11; format: cell-based; conditions: Homo sapiens, MV4-11; growth inhibition, semiquantitative; read-out: GI50 MV4:11
Molm13 = experiment: In vitro cell proliferation assay (CellTiter-Glo), Molm13; format: cell-based; conditions: Homo sapiens, MOLM-13; growth inhibition, semiquantitative; read-out: GI50 Molm13
SW620 [4] = experiment: In vitro cell proliferation assay (CellTiter-Glo), SW620; format: cell-based, human; conditions: Homo sapiens, SW-620; growth inhibition, semiquantitative; read-out: GI50 SW620
intracellular CDK8 [5] = target: T1, intracellular CDK8; experiment: Endogenous phosphoSTAT1 inhibition in SW620 cells growing in 10% FBS; format: cell-based; conditions: semiquantitative, read-out: SW620 P-STAT1(S727)
How it was run: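 SW620 cells in 10% FBS treated 8 h with compound, then lysed and phospho-STAT1 measured relative to total STAT1.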

CN(NC(=O)CC(=O)NN(C)C(=S)c1ccccc1)C(=S)c1ccccc1 [Elesclomol, elesclomol, reference compound]
GI50 (MDAMB231): 250 nM
GI50 (SKMEL19): 250 nM
GI50 (SW620 [1]): 250 nM
GI50 (A549): 250 nM
GI50 (BXPC-3): 62 nM

C[C@@H](Oc1cc(-c2cnn(C3CCNCC3)c2)cnc1N)c1c(Cl)ccc(F)c1Cl [Crizotinib, crizotinib, reference compound]
GI50 (SKMEL19): 5000 nM
GI50 (SW620 [1]): 1000 nM
GI50 (HCT116): 5000 nM
GI50 (DU145): 20000 nM
GI50 (BXPC-3): 5000 nM

CCCNc1ccc2ncc(-c3ccc4[nH]ncc4c3)n2n1 [CHR-6494]
reduction of H3T3ph [2]: reduce H3T3ph

COc1ccccc1-c1c2c(n(CCF)c1C(N)=O)-c1ccncc1OC2(C)C [Example 73]
IC50 (CDK8/Cyclin C): 139 nM
EC50 (intracellular HASPIN): 500 to 10000 nM
EC50 (intracellular CDK8 [3]): < 500 nM
EC50 (SW620 cells; Homo sapiens, SW-620, 264 h, read-out: mean EC50, colony forming assay): 5430 ± 297 nM
effect in colony forming assay (SW620 cells): dose-dependent effect
IC50 (CDK19/Cyclin C): 97.3 nM
IC50 (Haspin kinase): 1120 nM

NC(=O)c1cc2c([nH]1)-c1ccncc1O[C@H]2C1CCCCC1 (single isomer, unassigned) [Example 70]
GI50 (MDA-MB-231): 10000 to 100000 nM
GI50 (MV4:11): < 1000 nM
IC50 (CDK8/Cyclin C): 8.5 nM
GI50 (Molm13): 1000 to 10000 nM
GI50 (SW620 [4]): 1000 to 10000 nM
EC50 (intracellular CDK8 [3]): < 500 nM
EC50 (intracellular CDK8 [5]): < 500 nM
effect in colony forming assay (SW620 cells): dose-dependent effect
IC50 (CDK19/Cyclin C): 7.14 nM
